The experiment addresses human IDO1 (Homo sapiens, UniProt P14902). The experiment can be described thus: Assessment of human IDO-1 inhibitory activity in HEK cells (human IDO1/HEK293 cells, kynurenine read-out with Ehrlich reagent, absorbance 490 nm). Type of experiment: cell-based. More on the design: expressed in transfected cells. The settings on record: HEK Human IDO-1 cellular assay. The gist of the method: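 Kynurenine output from stably IDO1-transfected HEK293 cells (10,000/well, phenol red-free RPMI, 10% FBS) after 20 h compound exposure at 37 °C. The reaction was stopped with 0.2% TCA and heated 30 min at 50 °C, then the supernatant was mixed with Ehrlich reagent and read at 490 nm. IC50 was set against DMSO and a 500 nM reference standard as 0 and 100% inhibition.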

Sequence of human IDO1 (P14902 whole entry): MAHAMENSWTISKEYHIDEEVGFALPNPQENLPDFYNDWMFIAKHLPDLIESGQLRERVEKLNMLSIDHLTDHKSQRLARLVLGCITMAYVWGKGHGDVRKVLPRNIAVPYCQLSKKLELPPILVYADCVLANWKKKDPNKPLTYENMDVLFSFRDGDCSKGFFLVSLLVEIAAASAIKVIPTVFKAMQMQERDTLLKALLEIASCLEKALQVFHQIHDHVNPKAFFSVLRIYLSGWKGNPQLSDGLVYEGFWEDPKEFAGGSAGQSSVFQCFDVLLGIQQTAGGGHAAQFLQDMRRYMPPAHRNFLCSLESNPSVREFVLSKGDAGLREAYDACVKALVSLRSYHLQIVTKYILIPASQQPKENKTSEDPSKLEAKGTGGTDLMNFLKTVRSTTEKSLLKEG

By IC50 is commonly meant the point on the concentration scale where inhibition reaches its midpoint. With `CCOc1ccc(NC(=O)Nc2cc(C(COC)CC(=O)O)cc(F)c2N(CC(C)C)CC(C)C)c(F)c1` (single isomer, unassigned) [Example 1178, 3-(4-(Diisobutylamino)-3-(3-(4-ethoxy-2-fluorophenyl)ureido)-5-fluorophenyl)-4-methoxybutanoic acid], the IC50 was < 0.05 µM.

Consider `CCOc1ccc(NC(=O)Nc2cc(C(COC)CC(=O)O)cc(F)c2N(CC(C)C)CC(C)C)cc1` (single isomer, unassigned) [Example 1179, 3-(4-(Diisobutylamino)-3-(3-(4-ethoxyphenyl)ureido)-5-fluorophenyl)-4-methoxybutanoic acid], for which the IC50 is < 0.05 µM. Turning to `COCC(CC(=O)O)c1cc(F)c(N(CC(C)C)CC(C)C)c(NC(=O)Cc2ccc(Cl)cc2F)c1` (single isomer, unassigned) [Example 1180, 3-(3-(2-(4-Chloro-2-fluorophenyl)acetamido)-4-(diisobutylamino)-5-fluorophenyl)-4-methoxybutanoic acid], the IC50 is < 0.005 µM. Under `CCOc1ccc(CC(=O)Nc2cc(C(COC)CC(=O)O)cc(F)c2N(CC(C)C)CC(C)C)cc1` (single isomer, unassigned) [Example 1181, 3-(4-(Diisobutylamino)-3-(2-(4-ethoxyphenyl)acetamido)-5-fluorophenyl)-4-methoxybutanoic acid] stands < 0.05 µM; under `COCC(CC(=O)O)c1cc(F)c(N(CC(C)C)CC(C)C)c(NC(=O)Nc2ccc(Cl)cc2F)c1` (single isomer, unassigned) [Example 1182, 3-(3-(3-(4-Chloro-2-fluorophenyl)ureido)-4-(diisobutylamino)-5-fluorophenyl)-4-methoxybutanoic acid], < 0.005 µM. Under `COCC(CC(=O)O)c1cc(F)c(N(CC(C)C)CC(C)C)c(NC(=O)Nc2cncnc2)c1` (single isomer, unassigned) [Example 1183, 3-(4-(Diisobutylamino)-3-fluoro-5-(3-(pyrimidin-5-yl)ureido)phenyl)-4-methoxybutanoic acid] stands < 0.05 µM; under `COCC(CC(=O)O)c1cc(F)c(N(CC(C)C)CC(C)C)c(NC(=O)Nc2cc(C)on2)c1` (single isomer, unassigned) [Example 1184, 3-(4-(Diisobutylamino)-3-fluoro-5-(3-(5-methylisoxazol-3-yl)ureido)phenyl)-4-methoxybutanoic acid], < 0.05 µM; under `COCC(CC(=O)O)c1cc(F)c(N(CC(C)C)CC(C)C)c(NC(=O)Nc2ccc(C)cc2)c1` (single isomer, unassigned) [Example 1186, 3-(4-(Diisobutylamino)-3-fluoro-5-(3-(p-tolyl)ureido)phenyl)-4-methoxybutanoic acid], < 0.005 µM. Turning to `COCC(CC(=O)O)c1cc(F)c(N(CC(C)C)CC(C)C)c(NC(=O)Cc2ccc(C)cc2)c1` (single isomer, unassigned) [Example 1190, 3-(4-(Diisobutylamino)-3-fluoro-5-(2-(p-tolyl)acetamido)phenyl)-4-methoxybutanoic acid], the IC50 was < 0.005 µM. Consider `CCOc1ccc(NC(=O)Nc2cc(C(COC)CC(=O)O)cc(F)c2N(CC(C)C)CC(C)C)c(F)c1` (single isomer, unassigned) [Example 1191, 3-(4-(Diisobutylamino)-3-(3-(4-ethoxy-2-fluorophenyl)ureido)-5-fluorophenyl)-4-methoxybutanoic acid], for which the IC50 is < 0.005 µM. For `COCC(CC(=O)O)c1cc(F)c(N(CC(C)C)CC(C)C)c(NC(=O)Nc2ccc(OC(F)(F)F)cc2)c1` (single isomer, unassigned) [Example 1192, 3-(4-(Diisobutylamino)-3-fluoro-5-(3-(4-(trifluoromethoxy)phenyl)ureido)phenyl)-4-methoxybutanoic acid], the IC50 is < 0.05 µM.

Consider `COCC(CC(=O)O)c1cc(F)c(N(CC(C)C)CC(C)C)c(NC(=O)Nc2ccc(C)cc2)c1` (single isomer, unassigned) [Example 1194, 3-(4-(Diisobutylamino)-3-fluoro-5-(3-(p-tolyl)ureido)phenyl)-4-methoxybutanoic acid], for which the IC50 is < 0.05 µM. Turning to `COCC(CC(=O)O)c1cc(F)c(N(CC(C)C)CC(C)C)c(NC(=O)Nc2cncnc2)c1` (single isomer, unassigned) [Example 1196, 3-(4-(Diisobutylamino)-3-fluoro-5-(3-(pyrimidin-5-yl)ureido)phenyl)-4-methoxybutanoic acid], the IC50 was > 0.05 µM. Under `CC(C)CN(c1ccc(C(CC(=O)O)C2CC2)cc1NC(=O)Nc1ccc(Cl)cc1F)C1CCOCC1` (single isomer, unassigned) [Example 1199 Enantiomer 1, 3-(3-(3-(4-Chloro-2-fluorophenyl)ureido)-4-(isobutyl(tetrahydro-2H-pyran-4-yl)amino)phenyl)-3-cyclopropylpropanoic acid] stands < 0.005 µM. `Cc1cc(NC(=O)Nc2cc(C(CC(=O)O)C3CC3)ccc2N(CC(C)C)C2CCOCC2)no1` (single isomer, unassigned) [Example 1201 Enantiomer 1, 3-Cyclopropyl-3-(4-(isobutyl(tetrahydro-2H-pyran-4-yl)amino)-3-(3-(5-methylisoxazol-3-yl)ureido)phenyl)propanoic acid]: the IC50 was < 0.05 µM. Under `CCOc1ccc(NC(=O)Nc2cc(C(CC(=O)O)C3CC3)ccc2N(CC(C)C)C2CCOCC2)cc1` (single isomer, unassigned) [Example 1205 Enantiomer 1, 3-Cyclopropyl-3-(3-(3-(4-ethoxyphenyl)ureido)-4-(isobutyl(tetrahydro-2H-pyran-4-yl)amino)phenyl)propanoic acid] stands < 0.05 µM; under `CC(C)CN(c1ccc(C(CC(=O)O)C2CC2)cc1NC(=O)Nc1cncnc1)C1CCOCC1` (single isomer, unassigned) [Example 1207 Enantiomer 1, 3-Cyclopropyl-3-(4-(isobutyl(tetrahydro-2H-pyran-4-yl)amino)-3-(3-(pyrimidin-5-yl)ureido)phenyl)propanoic acid], > 0.05 µM. Under `COCC(CC(=O)O)c1ccc(N(CC(C)C)C2CCOCC2)c(NC(=O)Nc2ccc(C)cc2)c1` (single isomer, unassigned) [Example 1209, 3-(4-(Isobutyl(tetrahydro-2H-pyran-4-yl)amino)-3-(3-(p-tolyl)ureido)phenyl)-4-methoxybutanoic acid] stands > 0.05 µM. Under `COCC(CC(=O)O)c1ccc(N(CC(C)C)C2CCOCC2)c(NC(=O)Nc2ccc(Cl)cc2F)c1` (single isomer, unassigned) [Example 1210, 3-(3-(3-(4-Chloro-2-fluorophenyl)ureido)-4-(isobutyl(tetrahydro-2H-pyran-4-yl)amino)phenyl)-4-methoxybutanoic acid] stands < 0.05 µM. For the compound `COCC(CC(=O)O)c1ccc(N(CC(C)C)C2CCOCC2)c(NC(=O)Nc2ccc(OC(F)(F)F)cc2)c1` (single isomer, unassigned) [Example 1211, 3-(4-(Isobutyl(tetrahydro-2H-pyran-4-yl)amino)-3-(3-(4-(trifluoromethoxy)phenyl)ureido)phenyl)-4-methoxybutanoic acid], the IC50 is > 0.05 µM. As for `CCOc1ccc(NC(=O)Nc2cc(C(COC)CC(=O)O)ccc2N(CC(C)C)C2CCOCC2)cc1` (single isomer, unassigned) [Example 1212, 3-(3-(3-(4-Ethoxyphenyl)ureido)-4-(isobutyl(tetrahydro-2H-pyran-4-yl)amino)phenyl)-4-methoxybutanoic acid], the IC50 is > 0.05 µM.

As for `COCC(CC(=O)O)c1ccc(N(CC(C)C)C2CCOCC2)c(NC(=O)Nc2cc(C)on2)c1` (single isomer, unassigned) [Example 1213, 3-(4-(Isobutyl(tetrahydro-2H-pyran-4-yl)amino)-3-(3-(5-methylisoxazol-3-yl)ureido)phenyl)-4-methoxybutanoic acid], the IC50 is > 0.05 µM. Take `COCC(CC(=O)O)c1ccc(N(CC(C)C)C2CCOCC2)c(NC(=O)Nc2ccc(OC)cc2F)c1` (single isomer, unassigned) [Example 1214, 3-(3-(3-(2-Fluoro-4-methoxyphenyl)ureido)-4-(isobutyl(tetrahydro-2H-pyran-4-yl)amino)phenyl)-4-methoxybutanoic acid]: the IC50 is > 0.05 µM. For `CCOc1ccc(NC(=O)Nc2cc(C(COC)CC(=O)O)ccc2N(CC(C)C)C2CCOCC2)c(F)c1` (single isomer, unassigned) [Example 1215, 3-(3-(3-(4-Ethoxy-2-fluorophenyl)ureido)-4-(isobutyl(tetrahydro-2H-pyran-4-yl)amino)phenyl)-4-methoxybutanoic acid] the value was > 0.05 µM.

As for `COCC(CC(=O)O)c1ccc(N(CC(C)C)C2CCOCC2)c(NC(=O)Nc2ccc(C)cc2)c1` (single isomer, unassigned) [Example 1216, 3-(4-(Isobutyl(tetrahydro-2H-pyran-4-yl)amino)-3-(3-(p-tolyl)ureido)phenyl)-4-methoxybutanoic acid], the IC50 is < 0.05 µM. As for `COCC(CC(=O)O)c1ccc(N(CC(C)C)C2CCOCC2)c(NC(=O)Nc2ccc(Cl)cc2F)c1` (single isomer, unassigned) [Example 1217, 3-(3-(3-(4-Chloro-2-fluorophenyl)ureido)-4-(isobutyl(tetrahydro-2H-pyran-4-yl)amino)phenyl)-4-methoxybutanoic acid], the IC50 was < 0.005 µM. Consider `COCC(CC(=O)O)c1ccc(N(CC(C)C)C2CCOCC2)c(NC(=O)Nc2ccc(OC)cc2F)c1` (single isomer, unassigned) [Example 1221, 3-(3-(3-(2-Fluoro-4-methoxyphenyl)ureido)-4-(isobutyl(tetrahydro-2H-pyran-4-yl)amino)phenyl)-4-methoxybutanoic], for which the IC50 was < 0.05 µM.

Turning to `CCOc1ccc(NC(=O)Nc2cc(C(COC)CC(=O)O)ccc2N(CC(C)C)C2CCOCC2)c(F)c1` (single isomer, unassigned) [Example 1222, 3-(3-(3-(4-Ethoxy-2-fluorophenyl)ureido)-4-(isobutyl(tetrahydro-2H-pyran-4-yl)amino)phenyl)-4-methoxybutanoic acid], the IC50 was < 0.05 µM.

Values taken from patent publication US9790169B2, “IDO inhibitors” (BRISTOL-MYERS SQUIBB COMPANY, priority 2015, dated 2017).
